In patent US8552176B2 (priority 2010, dated 2013):

Assays:
[1] = tested on: BT-549; experiment: NCI 60 Human Tumor Cell Line Anticancer Screen; type: cell-based; settings: BT-549, Breast
[2] = tested on: SKOV3; experiment: NCI 60 Human Tumor Cell Line Anticancer Screen; type: cell-based; settings: SKOV3, Ovary
[3] = tested on: A498; experiment: NCI 60 Human Tumor Cell Line Anticancer Screen; type: cell-based; settings: A498, Renal
[4] = tested on: MALME-3M; experiment: NCI 60 Human Tumor Cell Line Anticancer Screen; type: cell-based; settings: Melanoma
[5] = tested on: OVCAR-3; experiment: NCI 60 Human Tumor Cell Line Anticancer Screen; type: cell-based; settings: OVCAR-3, Ovary
[6] = tested on: NCI-H23; experiment: NCI 60 Human Tumor Cell Line Anticancer Screen; type: cell-based; settings: NCI-H23, Non-small cell lung
[7] = tested on: SR; experiment: NCI 60 Human Tumor Cell Line Anticancer Screen; type: cell-based; settings: Leukemia
[8] = tested on: NCI-H460; experiment: cells; type: cell-based, human; settings: read-out: GI50 NCI-H460 lung
[9] = tested on: CCRF-CEM; experiment: NCI 60 Human Tumor Cell Line Anticancer Screen; type: cell-based; settings: Leukemia
[10] = tested on: A549; experiment: cells; type: cell-based, human; settings: read-out: GI50 A549 lung (+p53)
[11] = tested on: OVCAR-4; experiment: NCI 60 Human Tumor Cell Line Anticancer Screen; type: cell-based; settings: OVCAR-4, Ovary
[12] = tested on: SN12C; experiment: NCI 60 Human Tumor Cell Line Anticancer Screen; type: cell-based; settings: Renal
[13] = tested on: MCF7; experiment: cells; type: cell-based, human; settings: read-out: GI50 MCF7 breast
[14] = tested on: COLO 205; experiment: NCI 60 Human Tumor Cell Line Anticancer Screen; type: cell-based; settings: COLO 205, Colon
[15] = tested on: LOX IMVI; experiment: NCI 60 Human Tumor Cell Line Anticancer Screen; type: cell-based; settings: Melanoma
[16] = tested on: DU-145; experiment: cells; type: cell-based, human; settings: read-out: GI50 DU-145 prostate
[17] = tested on: M14; experiment: NCI 60 Human Tumor Cell Line Anticancer Screen; type: cell-based; settings: M14, Melanoma
[18] = tested on: CAKI-1; experiment: NCI 60 Human Tumor Cell Line Anticancer Screen; type: cell-based; settings: CAKI-1, Renal
[19] = tested on: SK-MEL-2; experiment: NCI 60 Human Tumor Cell Line Anticancer Screen; type: cell-based; settings: SK-MEL-2, Melanoma
[20] = tested on: SK-MEL-28; experiment: NCI 60 Human Tumor Cell Line Anticancer Screen; type: cell-based; settings: SK-MEL-28, Melanoma
[21] = tested on: ten-member panel of human carcinomas; experiment: cells; type: cell-based
[22] = tested on: Hep3b; experiment: cells; type: cell-based, human; settings: read-out: GI50 Hep3b liver
[23] = tested on: SF-295; experiment: NCI 60 Human Tumor Cell Line Anticancer Screen; type: cell-based; settings: SF-295, CNS
[24] = tested on: MDA-MB-435; experiment: NCI 60 Human Tumor Cell Line Anticancer Screen; type: cell-based; settings: MDA-MB-435, Melanoma
[25] = tested on: NCI-H226; experiment: NCI 60 Human Tumor Cell Line Anticancer Screen; type: cell-based; settings: NCI-H226, Non-small cell lung
[26] = tested on: NCI-H322M; experiment: NCI 60 Human Tumor Cell Line Anticancer Screen; type: cell-based; settings: Non-small cell lung
[27] = tested on: SW-620; experiment: NCI 60 Human Tumor Cell Line Anticancer Screen; type: cell-based; settings: SW-620, Colon
[28] = tested on: OVCAR-5; experiment: NCI 60 Human Tumor Cell Line Anticancer Screen; type: cell-based; settings: OVCAR-5, Ovary
[29] = tested on: RPMI-8226; experiment: NCI 60 Human Tumor Cell Line Anticancer Screen; type: cell-based; settings: RPMI-8226, Leukemia

CON(CCCCc1ccc(N(CCCl)CCCl)cc1)C1OCC(O)C1O (stereo not drawn) [Compound 60]
GI50 [1]: 13.4 µM | Inhibition at 10 μM ([1]; 10 μM): 38.53% | GI50 [2]: 17.9 µM | Inhibition at 10 μM ([2]; 10 μM): 72.76% | GI50 [3]: 21.8 µM | Inhibition at 10 μM ([3]; 10 μM): 114.47% | GI50 [4]: 20.2 µM | Inhibition at 10 μM ([4]; 10 μM): 69.73% | GI50 [5]: 15.3 µM | Inhibition at 10 μM ([5]; 10 μM): 85.34% | GI50 [6]: 7.15 µM | Inhibition at 10 μM ([6]; 10 μM): 54.44% | GI50 [7]: 0.386 µM | Inhibition at 10 μM ([7]; 10 μM): 48.67% | GI50 [8]: 1.7 ± 0.4 µM | GI50 [9]: 2.36 µM | Inhibition at 10 μM ([9]; 10 μM): 21.19% | GI50 [10]: 1.1 ± 0.1 µM | GI50 [11]: 29.2 µM | Inhibition at 10 μM ([11]; 10 μM): 77.16% | GI50 [12]: 7.06 µM | Inhibition at 10 μM ([12]; 10 μM): 54.23% | GI50 [13]: 1.8 ± 0.1 µM | GI50 [14]: 12.7 µM | Inhibition at 10 μM ([14]; 10 μM): 93.34% | GI50 [15]: 8.61 µM | Inhibition at 10 μM ([15]; 10 μM): 54.82% | GI50 [16]: 1.8 ± 0.1 µM | GI50 [17]: 9.25 µM | Inhibition at 10 μM ([17]; 10 μM): 67.23% | GI50 [18]: 11.5 µM | Inhibition at 10 μM ([18]; 10 μM): 13.59% | GI50 [19]: 20.2 µM | Inhibition at 10 μM ([19]; 10 μM): 100.16% | GI50 [20]: 36.5 µM | Inhibition at 10 μM ([20]; 10 μM): 116.87% | improvement in average growth inhibition across the cell panel [21]: 8 fold | increases in potency compared to 1 [21]: up to 15 fold | GI50 [22]: 0.67 ± 0.06 µM | GI50 [23]: 6.47 µM | Inhibition at 10 μM ([23]; 10 μM): 56.59% | GI50 [24]: 21.1 µM | Inhibition at 10 μM ([24]; 10 μM): 83.03% | GI50 [25]: 0.925 µM | Inhibition at 10 μM ([25]; 10 μM): 84.25% | GI50 [26]: > 100 µM | Inhibition at 10 μM ([26]; 10 μM): 99.02% | GI50 [27]: 12.4 µM | Inhibition at 10 μM ([27]; 10 μM): 68.08% | Inhibition at 10 μM [28]: 111.11% | Inhibition at 10 μM [29]: 15.94%
